Source: publication PMC11724075, “Small-molecule-induced ERBB4 activation to treat heart failure” (Nature Communications, 2025)
Several values for one entry are separate records, joined by “and”; a condition that tells them apart may be missing. Identical values can stand only once.

How the values were obtained:
ERBB2/ERBB3 = target: T1, ERBB2/ERBB3 (Homo sapiens, UniProt P21860); test: PathHunter U2OS ERBB2/ERBB3 dimerization assay; type: cell-based; conditions: for ERBB3/ERBB2 dimerization signal: relative to signal with 0.1 µM NRG1, single biological replicates
T1 construct: host or cells: U2OS (osteosarcoma cells), PathHunter engineered line
Method: PathHunter U2OS ERBB4/ERBB4 (osteosarcoma cells; Eurofins, 93-0961C3), U2OS ERBB2/ERBB4 (osteosarcoma cells; Eurofins, 493-0960C3), ERBB2/ERBB3 (osteosarcoma cells; Eurofins, 93-1042C3) and ERBB1/ERBB1 (osteosarcoma cells; Eurofins, 93-0989C3) dimerization cell lines were cultured according to the manufacturer’s instructions. Briefly, cells were cultured in Cell Culture Reagent 103 (Eurofins, 92-3103 G) supplemented with 250 µg/mL Hygromycin B (Eurofins, 92-0029) and 500 µg/mL G418 (Eurofins, 92-0030), and were maintained at 37 °C in humidified atmosphere of 5% CO2. HCFs (Innoprot, P10454) were cultured in fibroblast medium (Innoprot, P60108) supplemented with 10% (v/v) fetal bovine serum (FBS, Innoprot), 10% (v/v) fibroblast growth supplement (Innoprot), and 1% (v/v) penicillin/streptomycin solution (Innoprot). iAMs[33] (kindly provided by LUMC) were cultured in Advanced DMEM F-12 (Thermo Fisher Scientific, 12634028) supplemented with 2% (v/v) heat-inactivated FBS (Thermo Fisher Scientific, 10270106), 1% (v/v) penicillin/streptomycin (10,000 units/mL and 10 mg/mL respectively, Thermo Fisher Scientific, 15140122), 1× GlutaMAX (Thermo Fisher Scientific, 35050061), and 100 ng/mL doxycycline (Tocris, 4090) for proliferation. To induce differentiation, iAMs were transferred to medium without doxycycline.
U2OS ERBB4/ERBB4 dimerization cells were seeded at a density of 5 × 10^4 cells/well in 100 µL Cell Plating 0 Reagent, in white 96-well plates (PerkinElmer, 6005680) and incubated for 24 h at 37 °C, 5% CO2. […] Next, 110 µL PathHunter Flash Detection Reagent was added to each well and incubated at RT for 1 h after which the luminescence signal was measured using the Luminoskan Ascent (Thermo Fisher Scientific). […] The same experimental set-up was used for the U2OS ERBB2/ERBB4, U2OS ERBB2/ERBB3 and U2OS ERBB1/ERBB1 dimerization cell lines.

iCAGCre-Erbb4f/f mice = test: AngII-induced fibrosis in iCAGCre-Erbb4f/f mice injected with corn oil without tamoxifen; type: in vivo, mouse
Text: Floxed Erbb4 mice (Erbb4^f/f; C57BL/6N; 129-Erbb4tm1Fej/Mmucd, MMRRC, #010439-UCD) were crossed with CAGGCre-ER^TM mice (Jackson Laboratory, 004682) containing the Tg(CAG-cre/Esr1*)5Amc transgene that expresses Cre recombinase under the control of a chicken beta actin promoter/enhancer coupled to the human cytomegalovirus immediate-early gene enhancer, resulting in expression of tamoxifen-inducible Cre-ERT in most cell types. To induce Cre recombinase-mediated deletion of Erbb4, eleven-week-old female and male iCAGGCre-ER^TM/Erbb4^f/f mice were intraperitoneally injected with tamoxifen (Merck, T5648; 10 mg/kg; in corn oil) daily for 5 consecutive days.
(§1) Hearts were fixed in 4% PFA, paraffin-embedded, and cut into 5-µm sections. Images were acquired with an Olympus BX43 microscope (Olympus Stream Motion Software) or a CELENA® S Digital Imaging System and analyzed with ImageJ 2.14.0 software. Collagen distribution was visualized by Masson’s trichrome staining. Cardiac total fibrosis was expressed as the ratio of positively stained fibrotic area (blue) to the total area and perivascular fibrosis as the ratio of fibrotic area to vascular lumen area. Scar size was determined by measuring the scar length over the […]. Hypertrophy and vascularisation were visualized via an isolectin-B4/WGA/DAPI staining. Quantification was performed by a person blinded to the treatment protocol.
Supplementary Figure 6. Effect of AngII in male WT mice with compound NA-1 and the validation of genotype and phenotype of iCAGCre-Erbb4 f/f mice. […]
Uncropped gel is presented in Supplementary Figure 9. (c) Survival curve depicting the effects of 1000 ng/kg AngII treatment on mouse survival (ctrl = black line; 1000 ng/kg AngII = red line; n=6 male and female mice in Ctrl group and n=15 mice who received 1000 ng/kg AngII treatment). (d) Representative images of Masson’s trichrome staining of AngII-induced myocardial fibrosis in iCAGCre- […]
and n=10 male and female ice in AngII/Veh group). Scale bar = 500 µm for total fibrosis, scale bar = 50 µm for perivascular fibrosis. […]

mouse model of MI = test: Mouse model of MI, histology: CSA, capillaries, interstitial fibrosis, scar size; type: in vivo
Method: Twelve-week-old female and male Balb/cJ (Charles River, 000651) mice were randomized into either the ctrl or MI group. Mice in the MI group underwent surgical ligation of the LAD, while mice in the ctrl group underwent a sham procedure (n = 8 female mice, n = 10 male mice). Briefly, all mice received an injection of 0.1 mg/kg buprenorphine (Produlab Pharma) before induction of anesthesia with 8% sevoflurane (Zoetis). Anesthesia was maintained with 4.5% sevoflurane and mice were intubated and ventilated. An incision of 15 mm was made on the left side of the thorax and the thoracic cavity was opened at the third intercostal space using blunt forceps. The LAD was permanently ligated with a 8/0 polypropylene monofilament sutures (Ethicon, F1894) after which the thoracic cavity and skin were closed with 6/0 polypropylene monofilament sutures (Ethicon, F1841). and 5/0 polyamide 6 sutures (Ethilon, F2412H), respectively. Mice received another dose of 0.1 mg/kg buprenorphine 6–8 h after the initial dose. Two days after surgery, cardiac ultrasound was performed to exclude mice without successful MI (i.e. displaying hypokinesia in ≥2 out of 5 segments). […] Cardiac ultrasound was performed weekly. After 4 weeks of treatment, mice were euthanized, and hearts were collected.
as §1

[1] = MI experiment, female mice, MI/EF-1

T1 sequence (P21860 20-1342): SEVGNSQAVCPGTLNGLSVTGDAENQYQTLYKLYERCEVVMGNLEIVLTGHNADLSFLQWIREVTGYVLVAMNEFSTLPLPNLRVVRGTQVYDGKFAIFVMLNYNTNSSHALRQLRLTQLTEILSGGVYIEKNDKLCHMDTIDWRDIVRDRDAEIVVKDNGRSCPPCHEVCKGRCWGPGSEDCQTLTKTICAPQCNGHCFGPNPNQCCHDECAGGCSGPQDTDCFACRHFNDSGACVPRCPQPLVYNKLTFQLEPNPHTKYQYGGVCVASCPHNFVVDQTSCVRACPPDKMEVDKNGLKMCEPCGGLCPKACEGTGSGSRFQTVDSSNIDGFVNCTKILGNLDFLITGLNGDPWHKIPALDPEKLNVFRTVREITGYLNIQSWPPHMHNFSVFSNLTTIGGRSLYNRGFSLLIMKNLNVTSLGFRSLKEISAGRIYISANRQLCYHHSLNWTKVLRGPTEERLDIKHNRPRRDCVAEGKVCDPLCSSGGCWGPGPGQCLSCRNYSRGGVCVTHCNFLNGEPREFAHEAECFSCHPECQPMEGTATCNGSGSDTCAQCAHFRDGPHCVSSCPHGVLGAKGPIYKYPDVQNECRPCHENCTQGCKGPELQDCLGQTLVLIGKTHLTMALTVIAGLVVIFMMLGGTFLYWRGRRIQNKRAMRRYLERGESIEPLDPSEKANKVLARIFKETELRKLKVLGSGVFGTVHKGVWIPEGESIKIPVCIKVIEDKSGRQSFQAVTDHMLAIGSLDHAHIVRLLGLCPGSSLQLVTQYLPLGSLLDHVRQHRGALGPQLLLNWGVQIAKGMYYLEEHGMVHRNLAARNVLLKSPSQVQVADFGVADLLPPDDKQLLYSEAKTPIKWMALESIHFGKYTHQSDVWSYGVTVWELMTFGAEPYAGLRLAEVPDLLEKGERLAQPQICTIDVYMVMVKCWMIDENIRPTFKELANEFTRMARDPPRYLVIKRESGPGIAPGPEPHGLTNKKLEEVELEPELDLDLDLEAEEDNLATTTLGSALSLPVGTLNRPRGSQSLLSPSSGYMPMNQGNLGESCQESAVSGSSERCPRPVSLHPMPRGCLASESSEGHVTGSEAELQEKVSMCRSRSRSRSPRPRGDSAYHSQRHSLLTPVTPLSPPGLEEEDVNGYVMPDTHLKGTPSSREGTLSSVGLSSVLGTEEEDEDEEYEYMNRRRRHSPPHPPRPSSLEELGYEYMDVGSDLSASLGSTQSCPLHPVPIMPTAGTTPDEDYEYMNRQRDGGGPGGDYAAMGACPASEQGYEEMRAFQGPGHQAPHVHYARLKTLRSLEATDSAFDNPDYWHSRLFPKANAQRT
T1 sequence (P04626 23-1255, further chain): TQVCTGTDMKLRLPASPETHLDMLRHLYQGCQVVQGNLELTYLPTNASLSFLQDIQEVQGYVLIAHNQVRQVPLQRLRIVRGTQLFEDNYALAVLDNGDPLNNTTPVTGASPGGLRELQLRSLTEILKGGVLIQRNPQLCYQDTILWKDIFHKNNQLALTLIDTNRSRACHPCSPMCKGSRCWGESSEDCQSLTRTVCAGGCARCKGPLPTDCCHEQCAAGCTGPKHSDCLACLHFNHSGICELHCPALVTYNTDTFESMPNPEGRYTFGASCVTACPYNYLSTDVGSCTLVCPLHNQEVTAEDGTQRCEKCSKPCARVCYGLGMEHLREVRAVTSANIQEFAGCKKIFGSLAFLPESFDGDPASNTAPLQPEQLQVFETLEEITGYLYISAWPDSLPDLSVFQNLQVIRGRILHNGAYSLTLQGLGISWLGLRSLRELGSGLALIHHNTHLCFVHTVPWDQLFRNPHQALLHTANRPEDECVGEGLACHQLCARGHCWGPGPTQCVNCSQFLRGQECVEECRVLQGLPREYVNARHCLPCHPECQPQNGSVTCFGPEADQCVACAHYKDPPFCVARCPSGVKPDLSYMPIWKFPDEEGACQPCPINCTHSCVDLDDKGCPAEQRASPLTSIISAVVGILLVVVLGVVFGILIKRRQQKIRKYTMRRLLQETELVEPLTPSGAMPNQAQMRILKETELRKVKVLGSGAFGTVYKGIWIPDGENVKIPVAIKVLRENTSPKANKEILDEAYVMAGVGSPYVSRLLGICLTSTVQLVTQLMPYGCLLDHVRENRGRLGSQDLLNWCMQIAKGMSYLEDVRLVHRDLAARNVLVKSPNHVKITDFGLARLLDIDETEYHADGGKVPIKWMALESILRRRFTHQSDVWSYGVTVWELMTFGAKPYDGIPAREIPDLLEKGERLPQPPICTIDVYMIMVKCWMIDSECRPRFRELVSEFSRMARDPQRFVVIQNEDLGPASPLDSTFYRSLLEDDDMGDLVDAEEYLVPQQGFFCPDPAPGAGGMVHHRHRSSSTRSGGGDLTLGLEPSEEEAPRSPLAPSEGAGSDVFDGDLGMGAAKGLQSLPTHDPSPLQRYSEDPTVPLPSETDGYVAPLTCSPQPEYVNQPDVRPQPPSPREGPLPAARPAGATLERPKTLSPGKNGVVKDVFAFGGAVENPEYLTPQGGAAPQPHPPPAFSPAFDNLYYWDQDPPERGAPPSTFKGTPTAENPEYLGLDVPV

In the case of `O=C(NC1CC1)C(Sc1nc2ccccc2c(=O)n1C1CCCC1)c1ccccc1` (stereo not shown) [EF-1], the EC50 (ERBB2/ERBB3) is reported as greater than 32 µM, the “stimulatory effect on ERBB2/ERBB3 heterodimerization (in words)” value (ERBB2/ERBB3) is reported as “lower compared to ERBB4 homodimerization” and the ERBB3/ERBB2 dimerization signal (ERBB2/ERBB3; 3.125e-8 M) is reported as 0. For the same molecule, the ERBB3/ERBB2 dimerization signal (ERBB2/ERBB3; 6.25e-8 M) was 4.35 and 0.16 and -2.68 and -0.63 and -0.56, the ERBB3/ERBB2 dimerization signal (ERBB2/ERBB3; 1.25e-7 M) was 2.37 and 0.16 and -2.68 and -1.68 and -1.97 and the ERBB3/ERBB2 dimerization signal (ERBB2/ERBB3; 2.5e-7 M) was 0.62 and 4.11 and 0.43 and -3.27 and -3.43. For the same molecule, the ERBB3/ERBB2 dimerization signal (ERBB2/ERBB3; 5e-7 M) was 0.97 and 1.82 and 6.28 and 0.82 and -2.96 and -1.11, the ERBB3/ERBB2 dimerization signal (ERBB2/ERBB3; 1e-6 M) was 0.96 and 9.29 and 2.03 and -1.53 and -0.18 and the ERBB3/ERBB2 dimerization signal (ERBB2/ERBB3; 2e-6 M) was 1.34 and 1.02 and 9.84 and 3.13 and 0.57 and 2.12. For the same molecule, the ERBB3/ERBB2 dimerization signal (ERBB2/ERBB3; 4e-6 M) was 3.1 and 10.27 and 4.36 and 4.61 and 5.16, the ERBB3/ERBB2 dimerization signal (ERBB2/ERBB3; 8e-6 M) was 4.89 and 3.3 and 12.92 and 4.35 and 9.79 and 9.65 and the ERBB3/ERBB2 dimerization signal (ERBB2/ERBB3; 1.6e-5 M) was 11.23 and 14.98 and 10.81 and 10.98 and 13.88. For the same molecule, the ERBB3/ERBB2 dimerization signal (ERBB2/ERBB3; 3.2e-5 M) was 23.82 and 14.98 and 24 and 17.43 and 15.59 and 14.95, the “Perivascular fibrosis male+female in vivo corn oil-treated iCAGCre-Erbb4f/f mice with EF-1” value (iCAGCre-Erbb4f/f mice; AngII/EF-1, individual animals) was 0.8706 and 1.275 and 0.6537 and 2.675 and 0.6132 and 2.541 and 1.901 and 0.8014 and the “Total fibrosis male+female in vivo corn oil-treated iCAGCre-Erbb4f/f mice with EF-1” value (iCAGCre-Erbb4f/f mice; AngII/EF-1, individual animals) was 3.59 and 3.39 and 3.18 and 4.74 and 4.82 and 3.84 and 3.53 and 4.29 and 4.51. The “inhibitory effects on AngII-induced interstitial and perivascular fibrosis (in words)” value (iCAGCre-Erbb4f/f mice; iCAGCre-Erbb4f/f mice injected with corn oil without tamoxifen) was “preserved”, the “capillary density (#cap./100 CMs)” value (mouse model of MI; [1]) was 126.379 #cap./100 CMs and 126.085 #cap./100 CMs and 117.771 #cap./100 CMs and 154.255 #cap./100 CMs and 147.06 #cap./100 CMs and 123.257 #cap./100 CMs and 102.661 #cap./100 CMs and the “capillary density (#cap./area)” value (mouse model of MI; [1]) was 2.749 #cap./area and 3.344 #cap./area and 2.607 #cap./area and 4.068 #cap./area and 3.029 #cap./area and 3.536 #cap./area and 2.904 #cap./area. The “cardiomyocyte cross-sectional area in MI/EF-1 group (in words)” value (mouse model of MI; both male and female mice) was “significant increase in cross-sectional area”, the “interstitial fibrosis in the remote myocardium of the infarcted hearts (in words)” value (mouse model of MI; female mice) was “significantly lower” and the “number of capillaries per area (µm²) of the heart in MI/EF-1 group (in words)” value (mouse model of MI; female mice) was “marked decrease in number of capillaries per area”. For the same molecule, the “scar size (in words)” value (mouse model of MI; female or male mice) was “did not affect scar size”.
